Holding throughout (format): biochemical
One experiment deals with CDK6/CyclinD3 (Homo sapiens (Human), UniProt Q00534). As to the kind of experiment: CDK kinase inhibitory activity, ADP-Glo Kinase Assay, CDK6/CyclinD3. The following applies: for CDK1/CDK6 / CDK9/CDK6: ratio of IC50s; for CDK1/CDK6: selectivity for CDK6 over CDK1; for CDK9/CDK6: selectivity for CDK6 over CDK9. Here is the method:
(§1) Measurement of CDK kinase inhibitory activity of the compounds of this disclosure.
(§2) In vitro inhibitory effect of the compounds of the disclosure on CDK (CDK1, CDK4 and CDK6) kinase activity was tested by the following method.
(§3) 1.1 Instrument and Kit Information
(§4) 1.2 Experimental Preparation • 1.2.1 Preparation of Kinase Reaction Buffer I: The 5×Reaction Buffer A (Promega; V307A-C) provided in the kit was mixed and diluted with MILLI-Q® H2O and 0.1 M DTT (dithiothreitol) to give 4× kinase buffer, and then MILLI-Q® H2O was further added to finally formulate the solution into 1× Kinase buffer.
(§5) 1 μl of 10 mM standard substance stock solution was taken and added to 9 μl of kinase reaction buffer I and mixed well; then 90 μl of kinase reaction buffer I was added and mixed well; then 100 μl of kinase reaction buffer I was added and mixed well. The final concentration was 50 μM. • b. 40 μl of kinase reaction buffer II was added into B2 to B10 of a 96-well plate, and 50 μl of the above solution was added into B1; • c. 10 μl of solution was taken from well B1, added into B2, and mixed well; then 10 μl of the resulting solution was taken and added into B3, and dilution was carried out in sequence to B9, so as to obtain control solutions that are diluted by 5-fold sequentially. • (2) Preparation of test compound solution: • a. Test compound solutions at a certain concentration were taken, respectively, diluted with kinase reaction buffer I to a final concentration of 50 μM compound solution; • b. 40 μl of kinase reaction buffer II was added into H2 to H10 of the 96-well plate; and 50 μl of the above solution was added into H1; • c. 10 μl of solution was taken from well H1, added into H2, and mixed well; then 10 μl of the resulting solution was taken and added into H3, and dilution was carried out in sequence to H9, so as to obtain test compound solutions that are diluted by 5-fold sequentially. • 1.2.4 Preparation of a mixed solution of reaction substrate and ATP: • a. Preparation of ATP solution: • 200 μl of 0.1 mM ATP solution: 2 μl of 10 mM ATP was added to 198 μl of kinase reaction buffer I; • 300 μl of 50 μM ATP solution: 150 μl of kinase reaction buffer I was added to 150 μl of the above 0.1 mM ATP solution; • b. Preparation of 300 μl of reaction substrate solution: • 150 μl 1 μg/μl reaction substrate stock solution was added to 150 μl kinase reaction buffer I, and mixed well; • c. The above a/b solutions were mixed to obtain mixed solutions, respectively.
(§6) 1.3 Experimental process: • 1.3.1: 2 μl of compound solutions of various concentrations were taken, added to a 384-well plate, and centrifuged 3 minutes; • 1.3.2: 4 μl of kinase solution was added to each well, centrifuged at 5000 rpm and 18° C. for 10 minutes, and shaken on a plate shaker for 10 minutes; • 1.3.3: 4 μl of mixed solution of substrate and ATP was added to each well, centrifuged at 5000 rpm and 18° C. for 10 minutes, and shaken on a plate shaker at 37° C. for 90 minutes; • 1.3.4: The 384-well plate was taken out, and allowed to stand to room temperature; • 1.3.5: 10 μl of ADP-GLO™ reagent was added to each well, centrifuged at 5000 rpm and 18° C. for 18 minutes, and shaken on a plate shaker at 25° C. for 40 minutes, and then the reaction was stopped; • 1.3.6: 20 μl of kinase detection reagent was added to each well, centrifuged at 5000 rpm and 18° C. for 10 minutes, and shaken on a plate shaker at 25° C. for 30 minutes; and • 1.3.7: M1000pro MICROPLATE READER was used to read […] values.
(§7) The inhibition rate of each compound at each concentration point was calculated by the formula as follows and curve fitting was performed by GraphPad Prism 5 software to obtain the IC50 value.

Another experiment has as its target CDK1/CyclinA2 (Homo sapiens (Human), UniProt P06493). As to the kind of experiment: CDK kinase inhibitory activity, ADP-Glo Kinase Assay, CDK1/CyclinA2. Here is the method:
as §1, §2, §3, §4, §5, §6, §7
A general note: ADP-Glo first removes unused ATP, then detects ADP through luciferase.

The next experiment deals with CDK9/CyclinD3 (Homo sapiens (Human), UniProt P50750). As to the kind of experiment: Kinase inhibitory activity, ADP-Glo Kinase Assay, CDK9/CyclinD3. Here is the method:
as §3, §4, §5, §6, §7

Turning to `CCC1(C)C(C)=Nc2ccc(-c3nc(Nc4ccc(C5CCN(C)CC5)cn4)ncc3F)cc21` (stereo not drawn) [Example 35, 4-(3-ethyl-2,3-dimethyl-3H-indol-5-yl)-5-fluoro-N-(5-(1-methylpiperidin-4-yl)-pyridin-2-yl)pyrimidine-2-amino], the concentration for half-maximal inhibition (IC50) (usually the midpoint of a concentration-inhibition curve) on CDK6/CyclinD3 was found to be 8.74 nM; against CDK1/CyclinA2, 64 nM. Also, the CDK1/CDK6 at CDK6/CyclinD3 is listed as 7.33.
Take `CC1=Nc2c(F)cc(-c3nc(Nc4ccc5c(n4)CCN(C(=O)CO)C5)ncc3F)cc2C12CCCC2` [Example 40, 1-(2-((5-fluoro-4-(7′-fluoro-2′-methylspiro[cyclopentane-1,3′-indol]-5′-yl)pyrimidin-2-yl)amino)-7,8-dihydro-1,6-naphthyridine-6 (5H)-yl)-2-hydroxyacetamide]: at CDK6/CyclinD3, the 50% inhibitory concentration (IC50) was 25 nM and the CDK1/CDK6 amounted to 6.47. At CDK1/CyclinA2, 162 nM corresponded to half-maximal inhibition (IC50).
Consider `CC1=Nc2ccc(-c3nc(Nc4ccc(N5CCN(C)CC5)cn4)ncc3F)cc2C12CCCC2` [Example 25, 5-Fluoro-N-(5-(4-methylpiperazin-1-yl)pyridin-2-yl)-4-(2′-methylspiro [cyclopentane-1,3′-indol]-5′-yl)pyrimidine-2-amino], for which the midpoint of inhibition at CDK9/CyclinD3, the IC50, lay at 1.09 nM. For the same compound, at CDK6/CyclinD3, the IC50 is 8.78 nM, the CDK1/CDK6 was determined as 47.51 and the CDK9/CDK6 is 0.12. Also, the IC50 against CDK1/CyclinA2 was found to be 417 nM.
As to `CCC1(CC)C(C)=Nc2c(F)cc(-c3nc(Nc4ccc(N5CCNCC5)cn4)ncc3F)cc21` [Example 29, 4-(3,3-diethyl-7-fluoro-2-methyl-3H-indol-5-yl)-5-fluoro-N-(5-(piperazin-4-yl)pyridin-2-yl)pyrimidine-2-amino], at CDK6/CyclinD3, inhibition was half-maximal at 3.15 nM (IC50) and the CDK1/CDK6 is listed as 26.20. The half-maximal inhibitory concentration (IC50) against CDK1/CyclinA2 worked out at 82.4 nM.
For the compound `CCC1(C)C(C)=Nc2c(F)cc(-c3nc(Nc4ccc(N5CCN(C)CC5)cn4)ncc3F)cc21` (stereo not drawn) [Example 18, 4-(3-ethyl-7-fluoro-2,3-dimethyl-3H-indol-5-yl)-5-fluoro-N-(5-(4-methylpiperazin-1-yl)pyridin-2-yl)pyrimidine-2-amino], half-maximal inhibition at CDK9/CyclinD3 (IC50) was put at 1 nM. On CDK6/CyclinD3, half-maximal inhibition (IC50) required 2.74 nM, the CDK1/CDK6 is reported as 69.29 and the CDK9/CDK6 stood at 0.36. Also, inhibition against CDK1/CyclinA2 was half-maximal at 190 nM (IC50).
`CCN1CCN(c2ccc(Nc3ncc(F)c(-c4ccc5c(c4)C4(CCCC4)C(C)=N5)n3)nc2)CC1` [Example 22, N-(5-(4-ethylpiperazin-1-yl)pyridin-2-yl)-5-fluoro-4-(2′-methylspiro[cyclopentane-1,3′-indol]-5′-yl)pyrimidine-2-amino] returned a half-maximal inhibitory concentration (IC50) against CDK9/CyclinD3 of 0.5 nM. For the same compound, at CDK6/CyclinD3, the concentration for half-maximal inhibition (IC50) was 52.5 nM, the CDK1/CDK6 is listed as 17.43 and the CDK9/CDK6 came out at 0.009. Further, the half-inhibitory concentration (IC50) against CDK1/CyclinA2 came out at 915 nM.
Take `CC1=Nc2ccc(-c3nc(Nc4ccc(C5CCN(C)CC5)cn4)ncc3F)cc2C1(C)C` [Example 37, 5-Fluoro-N-(5-(1-methylpiperidin-4-yl)pyridin-2-yl)-4-(2,3,3-trimethyl-3H-indol-5-yl)pyrimidine-2-amino]: at CDK6/CyclinD3, the IC50 was 22.9 nM and the CDK1/CDK6 came to 3.22. At CDK1/CyclinA2, this compound had an IC50 of 73.7 nM.
Regarding `CC1=Nc2ccc(-c3nc(Nc4ccc(C5CCN(C)CC5)cn4)ncc3F)cc2C12CCCC2` [Example 23], the results for the half-maximal inhibitory concentration (IC50) against CDK6/CyclinD3 and against CDK1/CyclinA2 were 4.53 nM and 50.3 nM, respectively. For the same compound, the CDK1/CDK6 on CDK6/CyclinD3 came to 11.10.
As to `CC1=Nc2ccc(-c3nc(Nc4ccc(C5CCNCC5)cn4)ncc3F)cc2C12CCCC2` [Example 15, 5-fluoro-4-(2′-methylspiro[cyclopentane-1,3′-indol]-5′-yl)-N-(5-(piperidin-4-yl)pyridin-2-yl)pyrimidine-2-amino], at CDK6/CyclinD3, 4.31 nM corresponded to half-maximal inhibition (IC50) and the CDK1/CDK6 is reported as 6.25. The compound also gave a half-maximal inhibitory concentration (IC50) on CDK1/CyclinA2 of 26.9 nM.
As for `CCN1CCC(c2ccc(Nc3ncc(F)c(-c4ccc5c(c4)C4(CCCC4)C(C)=N5)n3)nc2)CC1` [Example 21, N-(5-(1-ethylpiperidin-4-yl)pyridin-2-yl)-5-fluoro-4-(2′-methylspiro[cyclopentane-1,3′-indol]-5′-yl)pyrimidine-2-amino], on CDK6/CyclinD3, half-maximal inhibition (IC50) was put at 27.7 nM and the CDK1/CDK6 came out at 4.89. The same compound showed an IC50 at CDK1/CyclinA2 of 135 nM.
In the same order, the values of `CCC1(C)C(C)=Nc2c(F)cc(-c3nc(Nc4ccc5c(n4)CCN(C(=O)CO)C5)ncc3F)cc21` (stereo not drawn) [Example 39, 1-(2-((4-(3-Ethyl-7-fluoro-2,3-dimethyl-3H-indol-5-yl)-5-fluoropyrimidin-2-yl)amino)-7,8-dihydro-1,6-naphthyridine-6 (5H)-yl)-2-hydroxyacetamide] are 5.65 nM, 6.82 and 38.5 nM.
Regarding `CCN1CCN(Cc2ccc(Nc3ncc(F)c(-c4cc(F)c5c(c4)C(C)(CC)C(C)=N5)n3)nc2)CC1` (stereo not drawn) [Example 5, 4-(3-ethyl-7-fluoro-2,3-dimethyl-3H-indol-5-yl)-N-(5-((4-ethylpiperazin-1-yl)methyl)pyridin-2-yl)-5-fluoropyrimidine-2-amino], on CDK6/CyclinD3, inhibition was half-maximal at 7.53 nM (IC50) and the CDK1/CDK6 is 58.23. Besides, at CDK1/CyclinA2, the half-maximal inhibitory concentration (IC50) was 439 nM.
`CC1=Nc2c(F)cc(-c3nc(Nc4ccc(CN5CCN(C)CC5)cn4)ncc3F)cc2C12CCCC2` [Example 43, 5-Fluoro-4-(7′-fluoro-2′-methylspiro[cyclopentane-1,3′-indol]-5′-yl)-N-(5-((4-methylpiperazin-1-yl)methyl)pyridin-2-yl)pyrimidine-2-amino]: at CDK6/CyclinD3, the concentration for half-maximal inhibition (IC50) came out at 0.9 nM and the CDK1/CDK6 worked out at 298.78. This compound yielded an IC50 against CDK1/CyclinA2 of 269 nM.
In the case of `CCC1(CC)C(C)=Nc2c(F)cc(-c3nc(Nc4ccc(C5CCN(C)CC5)cn4)ncc3F)cc21` [Example 38, 4-(3,3-diethyl-7-fluoro-2-methyl-3H-indol-5-yl)-5-fluoro-N-(5-(1-methylpiperidin-4-yl)pyridin-2-yl)pyrimidine-2-amino], at CDK6/CyclinD3, half-maximal inhibition (IC50) required 0.2 nM and the CDK1/CDK6 worked out at 99.15. At CDK1/CyclinA2, this compound returned a half-inhibitory concentration (IC50) of 19.8 nM.
Take `CCN1CCC(c2ccc(Nc3ncc(F)c(-c4cc(F)c5c(c4)C(C)(CC)C(C)=N5)n3)nc2)CC1` (stereo not drawn) [Example 26, 4-(3-ethyl-7-fluoro-2,3-dimethyl-3H-indol-5-yl)-N-(5-(1-ethylpiperidin-4-yl)pyridin-2-yl)-5-fluoropyrimidine-2-amino]: half-maximal inhibition at CDK9/CyclinD3 (IC50) required 11 nM. For the same compound, on CDK6/CyclinD3, the 50% inhibitory concentration (IC50) was 12.5 nM, the CDK1/CDK6 turned out to be 17.27 and the CDK9/CDK6 is recorded as 0.88.
At CDK6/CyclinD3, `CCN1CCN(Cc2ccc(Nc3nccc(-c4cc(F)c5c(c4)C4(CCCC4)C(C)=N5)n3)nc2)CC1` [Example 8, N-(5-((4-ethylpiperazin-1-yl)methyl)pyridin-2-yl)-4-(7′-fluoro-2′-methylspiro [cyclopentane-1,3′-indol]-5′-yl)pyrimidine-2-amino] displayed an IC50 of 85.8 nM.
As to `CCC1(C)C(C)=Nc2ccc(-c3nc(Nc4ccc(C5CCNCC5)cn4)ncc3F)cc21` (stereo not drawn) [Example 33, 4-(3-ethyl-2,3-dimethyl-3H-indol-5-yl)-5-fluoro-N-(5-(piperidin-4-yl)pyridin-2-yl)pyrimidine-2-amino], on CDK6/CyclinD3, the concentration for half-maximal inhibition (IC50) worked out at 15.6 nM and the CDK1/CDK6 turned out to be 10.65.
In the case of `CCC1(C)C(C)=Nc2ccc(-c3nc(Nc4ccc(N5CCN(C)CC5)cn4)ncc3F)cc21` (stereo not drawn) [Example 34, 4-(3-ethyl-2,3-dimethyl-3H-indol-5-yl)-5-fluoro-N-(5-(4-methylpiperazin-1-yl)pyridin-2-yl)pyrimidine-2-amino], at CDK6/CyclinD3, the midpoint of inhibition, the IC50, lay at 5.13 nM and the CDK1/CDK6 is on record as 21.75.

These data come from US11091476B2, “Protein kinase inhibitors, preparation method and medical use thereof” (Gan & Lee Pharmaceuticals, priority 2015, dated 2021).
